# Source: US20210046137A1, “ANTIMICROBIAL PHOTOSENSITIZER COMPOSITION AND METHOD” (ToeFX Inc., priority 2018, published 2021)
# Columns and labels:
# [1] = tested on: C. albicans; conditions: low curcumin concentrations, planktonic and biofilm form; cited from earlier work
# [2] = tested on: Trichophyton rubrum; test: Methylene blue phototherapy of infected nail pieces, ex vivo; type: cell-based; parameters: key to Fungal growth on nail pieces after treatment: “G” indicates growth; “N” indicates no growth
# Procedure: Sterilized nail pieces were placed on fresh T.rubrum lawn to be infected for at least 10 days with dorsal side upwards. […] Control was carrier solution with no Methylene blue. […] The nails were exposed to red light (640 nm, 9 W—3 LED lights, 3 W each) for 30 min. Amount of viable fungal colonies of Trichophyton rubrum after treatment relative to control was observed using microscope and once visual continued to be monitored with the naked eye. Results are shown in Table 2, where “G” indicates growth and “N” indicates no growth. […] After 5 days mycelium growth was found for the 0.0625% and 0.03125% treatments. After 6 days of the treatment mycelium was found for the 0.125% treatments. […] Meaning that there is a need for a secondary treatment or alternative treatment in order to obtain prolonged inhibition of re-growth.
compound,measurement,setting,value
"COc1cc(/C=C/C(=O)CC(=O)/C=C/c2ccc(O)c(OC)c2)ccc1O [curcumin, diferuloylmethane]",photoinactivating C. albicans,[1],highly effective
"CN(C)c1ccc2nc3ccc(=[N+](C)C)cc-3sc2c1 [MB, Methylene blue]",Fungal growth on nail pieces after treatment,"[2]; 0.03% MB in carrier, red light 640 nm 30 min, Day 3",N
same,Fungal growth on nail pieces after treatment,"[2]; 0.03% MB in carrier, red light 640 nm 30 min, Day 4",N
same,Fungal growth on nail pieces after treatment,"[2]; 0.03% MB in carrier, red light 640 nm 30 min, Day 6",G
same,Fungal growth on nail pieces after treatment,"[2]; 0.03% MB in carrier, red light 640 nm 30 min, Day 7",G
same,Fungal growth on nail pieces after treatment,"[2]; 0.03% MB in carrier, red light 640 nm 30 min, Day 8",G
same,Fungal growth on nail pieces after treatment,"[2]; 0.03% MB in carrier, red light 640 nm 30 min, Day 9",G
same,Fungal growth on nail pieces after treatment,"[2]; 0.03% MB in carrier, red light 640 nm 30 min, Day 10",G
same,Fungal growth on nail pieces after treatment,"[2]; 0.03% MB in carrier, red light 640 nm 30 min, Day 12",G
same,Fungal growth on nail pieces after treatment,"[2]; 0.03% MB in carrier, red light 640 nm 30 min, Day 13",G
same,Days after treatment at which mycelium growth was found,"[2]; 0.03125% MB, red light 640 nm 30 min",5 days
same,Fungal growth on nail pieces after treatment,"[2]; 0.0625% MB in carrier, red light 640 nm 30 min, Day 3",N
same,Fungal growth on nail pieces after treatment,"[2]; 0.0625% MB in carrier, red light 640 nm 30 min, Day 4",N
same,Fungal growth on nail pieces after treatment,"[2]; 0.0625% MB in carrier, red light 640 nm 30 min, Day 6",G
same,Fungal growth on nail pieces after treatment,"[2]; 0.0625% MB in carrier, red light 640 nm 30 min, Day 7",G
same,Fungal growth on nail pieces after treatment,"[2]; 0.0625% MB in carrier, red light 640 nm 30 min, Day 8",G
same,Fungal growth on nail pieces after treatment,"[2]; 0.0625% MB in carrier, red light 640 nm 30 min, Day 9",G
same,Fungal growth on nail pieces after treatment,"[2]; 0.0625% MB in carrier, red light 640 nm 30 min, Day 10",G
same,Fungal growth on nail pieces after treatment,"[2]; 0.0625% MB in carrier, red light 640 nm 30 min, Day 12",G
same,Fungal growth on nail pieces after treatment,"[2]; 0.0625% MB in carrier, red light 640 nm 30 min, Day 13",G
same,Days after treatment at which mycelium growth was found,"[2]; 0.0625% MB, red light 640 nm 30 min",5 days
same,Fungal growth on nail pieces after treatment,"[2]; 0.125% MB in carrier, red light 640 nm 30 min, Day 3",N
same,Fungal growth on nail pieces after treatment,"[2]; 0.125% MB in carrier, red light 640 nm 30 min, Day 4",N
same,Fungal growth on nail pieces after treatment,"[2]; 0.125% MB in carrier, red light 640 nm 30 min, Day 6",N
same,Fungal growth on nail pieces after treatment,"[2]; 0.125% MB in carrier, red light 640 nm 30 min, Day 7",G
same,Fungal growth on nail pieces after treatment,"[2]; 0.125% MB in carrier, red light 640 nm 30 min, Day 8",G
same,Fungal growth on nail pieces after treatment,"[2]; 0.125% MB in carrier, red light 640 nm 30 min, Day 9",G
same,Fungal growth on nail pieces after treatment,"[2]; 0.125% MB in carrier, red light 640 nm 30 min, Day 10",G
same,Fungal growth on nail pieces after treatment,"[2]; 0.125% MB in carrier, red light 640 nm 30 min, Day 12",G
same,Fungal growth on nail pieces after treatment,"[2]; 0.125% MB in carrier, red light 640 nm 30 min, Day 13",G
same,Days after treatment at which mycelium growth was found,"[2]; 0.125% MB, red light 640 nm 30 min",6 days
same,Fungal growth on nail pieces after treatment,"[2]; 0.25% MB in carrier, red light 640 nm 30 min, Day 3",N
same,Fungal growth on nail pieces after treatment,"[2]; 0.25% MB in carrier, red light 640 nm 30 min, Day 4",N
same,Fungal growth on nail pieces after treatment,"[2]; 0.25% MB in carrier, red light 640 nm 30 min, Day 6",N
same,Fungal growth on nail pieces after treatment,"[2]; 0.25% MB in carrier, red light 640 nm 30 min, Day 7",N
same,Fungal growth on nail pieces after treatment,"[2]; 0.25% MB in carrier, red light 640 nm 30 min, Day 8",N
same,Fungal growth on nail pieces after treatment,"[2]; 0.25% MB in carrier, red light 640 nm 30 min, Day 9",N
same,Fungal growth on nail pieces after treatment,"[2]; 0.25% MB in carrier, red light 640 nm 30 min, Day 10",N
same,Fungal growth on nail pieces after treatment,"[2]; 0.25% MB in carrier, red light 640 nm 30 min, Day 12",N
same,Fungal growth on nail pieces after treatment,"[2]; 0.25% MB in carrier, red light 640 nm 30 min, Day 13",G
same,Days after treatment at which growth was found,"[2]; 0.25% MB, red light 640 nm 30 min",12 days
same,Effect on fungus growth,"[2]; MB alone (without light), separate experiment",did not kill nor inhibit
